In patent US9975870B2, “5,6-dimethoxy-1,1-dioxobenzo[b]thiophene-2-methyloxycarbonyl (DM-Bsmoc) and related amino-protecting groups” (MASSACHUSETTS, UNIVERSITY OF, priority 2013, dated 2018):

Test: Deblocking of substituted Bsmoc p-chloroaniline (R-Bsmoc-PCA) urethanes with piperidine, 1H-NMR monitoring
Assay type: physicochemical
Conditions: for t1/2 2 eq piperidine in CDCl3 (approximate half time for the reaction of R-Bsmoc-PCA urethane and piperidine): 2 eq piperidine in CDCl3, 1H-NMR analysis, approximate values
Text: As an electron-withdrawing substituent the MeSO2 group also enhances the stability of the benzo[b]thiophene-2-methyl system toward acidic reagents and in addition enhances the speed of the deblocking step. […] Tables 1A and 1B show the approximate half times for the reaction of substituted Bsmoc p-chloroaniline derivatives with 2 eq of piperidine in CDCl3 according to ^1H-NMR analysis.
Tables 1A and 1B. Approximate half times for the reaction of R-Bsmoc-PCA urethane and piperidine

Row | SMILES | t1/2 2 eq piperidine in CDCl3 (approximate half time for the reaction of R-Bsmoc-PCA urethane and piperidine) [min] | speed of deblocking relative to the unsubstituted analog (Bsmoc-NHC6H4-Cl-p) (treatment with piperidine in CDCl3, NMR monitoring)
1 | Cc1cccc2c1C=C(COC(=O)Nc1ccc(Cl)cc1)S2(=O)=O [4-Me-Bsmoc-PCA] | 150 | –
2 | CC1=C(COC(=O)Nc2ccc(Cl)cc2)S(=O)(=O)c2ccccc21 [3-Me-Bsmoc-PCA] | 360 | –
3 | O=C(Nc1ccc(Cl)cc1)OCC1=Cc2cc(Cl)ccc2S1(=O)=O [5-Cl-Bsmoc-PCA] | 2 | –
4 | CC(=O)Nc1ccc2c(c1)C=C(COC(=O)Nc1ccc(Cl)cc1)S2(=O)=O [5-Ac—NH-Bsmoc-PCA] | 3 | –
5 | COc1cc2c(cc1OC)S(=O)(=O)C(COC(=O)Nc1ccc(Cl)cc1)=C2 [5,6-MeO-Bsmoc-PCA] | 3 to 4 | –

Other lines, results leading:

Row | t1/2 2 eq piperidine in CDCl3 (approximate half time for the reaction of R-Bsmoc-PCA urethane and piperidine) [min] | speed of deblocking relative to the unsubstituted analog (Bsmoc-NHC6H4-Cl-p) (treatment with piperidine in CDCl3, NMR monitoring) | SMILES
6 | 6 to 7 | – | Cc1ccc2c(c1)C=C(COC(=O)Nc1ccc(Cl)cc1)S2(=O)=O [5-Me-Bsmoc-PCA]
7 | <1 | about six times more readily | CS(=O)(=O)c1ccc2c(c1)C=C(COC(=O)Nc1ccc(Cl)cc1)S2(=O)=O [5-MeSO2-Bsmoc-PCA]
8 | 6 to 7 | – | O=C(Nc1ccc(Cl)cc1)OCC1=Cc2ccccc2S1(=O)=O [Bsmoc-PCA, reference compound]
9 | 2 | – | O=C(Nc1ccc(Cl)cc1)OCC1=Cc2ccc(Cl)cc2S1(=O)=O [6-Cl-Bsmoc-PCA]
10 | <1 | – | O=C(Nc1ccc(Cl)cc1)OCC1=Cc2cc([N+](=O)[O-])ccc2S1(=O)=O [5-NO2-Bsmoc-PCA]
11 | <1 | – | CS(=O)(=O)c1ccc2c(c1)S(=O)(=O)C(COC(=O)Nc1ccc(Cl)cc1)=C2 [6-MeSO2-Bsmoc-PCA]
